This is an account of results in patent US20060251651A1, “Antagonist and agonist which bind to a strong binding site of chemokine receptor” (priority 2002, published 2006).

“And” between values parts separate entries of the source, which are not always exact repeats. Identical values can stand only once. “Also recorded” adds a separate entry of the source. Like-named read-outs stand apart in the source and are kept apart here.

Series [1] concerns the target T1, hCCR5 (Homo sapiens, UniProt P51681). Kind of series: Ligand binding inhibition test for CCR5 under severe washing condition. Set-up: expressed in transfected cells; host or cells: CHO-dhfr(-) stably transfected with pEF-BOS-bsr/hCCR5. The conditions noted are these: for IC50: hCCR5-CHO cells, compound 40 minutes, washed 8 times with PBS, 4 hours at 37° C., then radioisotope-labeled ligand; for inhibitory activity, times higher than that of SCH-351125 / inhibitory activity, times higher than that of TAK-779: ratio of IC50 values under severe washing condition. The protocol: Inhibitory effects of CCR5 antagonists (e.g., TAK-779, SCH-351125 and triazaspiro[5.5]undecane derivatives) were examined using a binding test system of CCR5 endogenous ligand to CCR5.
Human CCR5 expressing cells (hCCR5-CHO cells) were inoculated into a culture plate, cultured using a medium (Ham's F-12 medium/10% FBS/Antibiotic-Antimycotic) at 37° C. for 1 day (or 2 days) in a CO2 incubator of 5% CO2 and used in the test. The medium in each well was discarded, the cells were washed with an assay buffer (Ham's F-12 medium/0.5% BSA/20 mmol/l HEPES), and the assay buffer was added to each well. A compound to be tested having respective concentration was added thereto and incubated at room temperature for 40 minutes, and then the cells were washed 8 times with PBS (1 ml/well). The assay buffer was further added and incubated at 37° C. for 4 hours. After 4 hours, the assay buffer was discarded and a radioisotope-labeled ligand was added. The culture mixture containing the cells was incubated at room temperature for 40 minutes and then washed three times with 1 ml/well of ice-cooled PBS. The cells were lysed with 1 mol/I sodium hydroxide aqueous solution, and radioactivity of the cell lysate was measured using a γ counter.

The target of series [2] is T1, hCCR5. Kind of series: Migration test induced by MIP-1α using hCCR5-Ba/F3 cells. Format: cell-based. Set-up: expressed in transfected cells; host or cells: Ba/F3 cells electroporated with linearised pEF-BOS-bsr/hCCR5, blasticidin-selected clone. The following applies: 24 well transwell, 3 hours; read-out: IC50, inhibition of migration of hCCR5-Ba/F3 cells by MIP-1α. The protocol: Firstly, 0.5 ml of a medium containing […] was added to the lower chamber (transwell bottom) of a 24 well transwell plate. […] The migration was started by moving the upper chamber wells of the transwell plate to the lower chamber wells containing chemokine. […] Measurement of the number of cells was carried out using a flow cytometer (BECTON DICKINSON), and the number of cells inside the gate (FSC×SSC) was counted. The number of migrated cells was defined as their ratio (%) to the count when the firstly added cells were analyzed by FACS, and the IC50 value was calculated from the inhibitory activity for the DMSO control group.

The target in series [3] is T1, hCCR5. The experiment in a line: Inhibitory action upon the hCCR5 binding of tritium-labeled compound 1 (competition test). Further details: expressed in transfected cells; host or cells: Ba/F3 cells electroporated with linearised pEF-BOS-bsr/hCCR5, blasticidin-selected clone. The following applies: hCCR5-CHO cells; for inhibition of the hCCR5 binding of tritium-labeled compound 1: when the concentration was increased. The protocol:
Human CCR5 expressing cells (hCCR5-CHO cells) were inoculated into a culture plate, cultured using a medium (Ham's F-12 medium/10% FBS/Antibiotic-Antimycotic) at 37° C. for 1 day in a CO2 incubator of 5% CO2 and used in the test. The medium in each well was discarded, the cells were washed with an assay buffer (Ham's F-12 medium/0.5% BSA/20 mmol/l HEPES), and the assay buffer was added thereto. […] After incubation at room temperature for 2 hours, the cells were washed with 1 ml/well of ice-cooled D-PBS. The cells were lysed with 1 mol/l NaOH and neutralized, and then a scintillator (ACS II, Amersham) was added thereto. Radioactivity of each vial was measured using a liquid scintillation counter (TRI-CARB 2900TR, Perkin Elmer Life Sciences).

The target of series [4] is T1, hCCR5. The experiment in a line: Anti-hCCR5 antibody binding inhibition test (flow cytometry). Further details: expressed in transfected cells; host or cells: Ba/F3 cells electroporated with linearised pEF-BOS-bsr/hCCR5, blasticidin-selected clone. The following applies: hCCR5-CHO cells, 10 μmol/l of each compound, FITC-labeled antibody. Here is the method: […] The medium was removed from the flask, and the cells were peeled off and recovered by adding 1 mmol/l EDTA/PBS. The recovered cells were washed once with PBS and again suspended in PBS, and then the number of cells was counted. After centrifugation and subsequent removal of the supernatant by suction, the cells were suspended in an assay buffer (0.5% FBS/Ham's F-12 medium). Each of the compounds to be tested was added to the cell suspension and incubated on ice. An FITC-labeled anti-hCCR5 antibody (45531.111 or 45523.111) or an FITC-labeled isotype control antibody was further added thereto and allowed to undergo the reaction on ice under shading. After the reaction, the cells were washed twice with ice-cooled PBS and again suspended in ice-cooled FACS buffer (2% FBS/PBS), and the amount (fluorescence intensity) of the bound anti-hCCR5 antibody was measured using a flow cytometer (BECTON DICKINSON).
In general terms: In flow cytometry, cells or beads pass a laser one at a time.

Series [5] addresses T1, hCCR5. Kind of series: Persistency of hCCR5 binding in the living body of mouse after compound administration. The series is classed as in vivo. The conditions noted are these: Balb/c mouse. Set-up: expressed in transfected cells; host or cells: Ba/F3 cells electroporated with linearised pEF-BOS-bsr/hCCR5, blasticidin-selected clone. The protocol:
The peripheral blood was centrifuged using Lymphocyte-M to prepare PBMC, and the spleen was crushed, subjected to hemolytic treatment and then washed to obtain cells. The thus prepared cells were stained with PE-labeled anti-hCCR5 antibody (45531.111). CFSE-positive hCCR5-Ba/F3 Cells were detected by a flow cytometer, and fluorescence intensity (mean value) of PE-labeled anti-hCCR5 antibodies (2D7 and 45531.111) bound to the cells was measured.
The occupying ratio was calculated by the following formulae.
Correction Value [formula]
Receptor Occupying Ratio (R) [formula]

A short description of series [6]: Blood plasma levels of compound 1 in mouse after administration into abdominal cavity. The series is classed as in vivo. The conditions noted are these: intraperitoneal, Balb/c mouse, read-out: blood plasma level.

T1 sequence (P51681 whole entry): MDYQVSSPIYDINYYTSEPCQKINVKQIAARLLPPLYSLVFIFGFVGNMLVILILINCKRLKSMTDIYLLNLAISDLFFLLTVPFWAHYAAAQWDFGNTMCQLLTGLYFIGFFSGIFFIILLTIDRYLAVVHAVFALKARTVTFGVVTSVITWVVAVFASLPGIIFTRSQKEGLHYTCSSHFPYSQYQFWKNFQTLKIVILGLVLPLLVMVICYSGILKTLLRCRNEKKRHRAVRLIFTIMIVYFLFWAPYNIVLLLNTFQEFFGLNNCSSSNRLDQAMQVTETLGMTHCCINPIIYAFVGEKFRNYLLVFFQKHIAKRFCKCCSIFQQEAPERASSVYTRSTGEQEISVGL

In turn, `CCO/N=C(\c1ccc(Br)cc1)C1CCN(C2(C)CCN(C(=O)c3c(C)cc[n+]([O-])c3C)CC2)CC1` [SCH-351125] showed an IC50 at hCCR5 [1] of 0.0167 µM. Also, the IC50 at hCCR5 [2] is 0.0144 µM and 0.021 µM. Moreover, on hCCR5 [3], the “inhibition of the hCCR5 binding of tritium-labeled compound 1” value is “complete inhibition”. On hCCR5 [4], the “inhibition of binding of anti-hCCR5 antibody 45523.111 to hCCR5 expressing cells” value was “inhibited binding; also recorded: strongly inhibited” and the “inhibition of binding of anti-hCCR5 antibody 45531.111 to hCCR5 expressing cells” value is on record as “weak”.
`Cc1ccc(-c2ccc3c(c2)C=C(C(=O)Nc2ccc(C[N+](C)(C)C4CCOCC4)cc2)CCC3)cc1.[Cl-]` [TAK-779] gave an IC50 at hCCR5 [1] of 0.0104 µM. The IC50 on hCCR5 [2] is 0.055 µM. The “inhibition of the hCCR5 binding of tritium-labeled compound 1” value on hCCR5 [3] is given as “complete inhibition”. Besides, on hCCR5 [4], the “inhibition of binding of anti-hCCR5 antibody 45523.111 to hCCR5 expressing cells” value is listed as “only weakly; also recorded: weak inhibition”; the “inhibition of binding of anti-hCCR5 antibody 45531.111 to hCCR5 expressing cells” value is “only weakly and weak”.
With `CCCCN1C(=O)[C@@H]([C@H](O)C2CCCCC2)NC(=O)C12CCN(Cc1ccc(Oc3ccc(C(=O)O)cc3)cc1)CC2.Cl` [compound 1, (3R)-1-butyl-2,5-dioxo-3-((1R)-1-hydroxy-1-cyclohexylmethyl)-9-(4-(4-carboxyphenyloxy)phenylmethyl)-1,4,9-triazaspiro[5.5]undecane hydrochloride], at hCCR5 [1], the “inhibitory activity, times higher than that of SCH-351125” value was “about 4 times”. Also, the “inhibitory activity, times higher than that of TAK-779” value at hCCR5 [1] is given as “about 2.5 times”. The “hCCR5 occupied in the spleen” value on hCCR5 [5] (3 mg/kg into abdominal cavity, 0.5 hours) is reported as 92%; at hCCR5 [5] (3 mg/kg into abdominal cavity, 4 hours), 55%; at hCCR5 [5] (3 mg/kg into abdominal cavity, 8 hours) it was 32%; at hCCR5 [5] (30 mg/kg into abdominal cavity, 0.5 hours), 96%; on hCCR5 [5] (30 mg/kg into abdominal cavity, 4 hours) it was 69%; at hCCR5 [5] (30 mg/kg into abdominal cavity, 8 hours), 54%. In addition, the “competition with TAK-779 and SCH-351125 for CCR5” value at hCCR5 [3] (displacement curves shifted in parallel, hydrochloride) is given as “competes; also recorded: Competitively antagonizes”. In addition, on hCCR5 [4], the “inhibition of binding of anti-hCCR5 antibody 45523.111 to hCCR5 expressing cells” value is “strongly inhibited”. In addition, the “inhibition of binding of anti-hCCR5 antibody 45531.111 to hCCR5 expressing cells” value at hCCR5 [4] (hydrochloride) was “strongly inhibited; also recorded: strong”. Besides, the concentration at 0.5 h in series [6] (3 mg/kg into abdominal cavity) came to 0.352 µM; in series [6] (30 mg/kg into abdominal cavity), 1.61 µM. Further, the results for the concentration at 4 h in series [6] (3 mg/kg into abdominal cavity) and in series [6] (30 mg/kg into abdominal cavity) were 0.005 µM and 0.022 µM, respectively. Moreover, the concentration at 8 h in series [6] (3 mg/kg into abdominal cavity) was 0.001 µM; in series [6] (30 mg/kg into abdominal cavity) it was 0.004 µM.
In the case of `CCCCN1C(=O)[C@@H]([C@H](O)C2CCCCC2)NC(=O)C12CCN(Cc1ccc(Oc3ccc(C(=O)NC)cc3)cc1)CC2.Cl` [compound 2, (3R)-1-butyl-2,5-dioxo-3-((1R)-1-hydroxy-1-cyclohexylmethyl)-9-(4-(4-methylaminocarbonylphenyloxy)phenylmethyl)-1,4,9-triazaspiro[5.5]undecane hydrochloride], on hCCR5 [1], the IC50 worked out at 0.0015 µM; the “inhibitory activity, times higher than that of SCH-351125” value is reported as “about 11 times”; the “inhibitory activity, times higher than that of TAK-779” value is reported as “about 7 times”. In addition, on hCCR5 [4], the “inhibition of binding of anti-hCCR5 antibody 45523.111 to hCCR5 expressing cells” value was “strongly inhibited”. Besides, the “inhibition of binding of anti-hCCR5 antibody 45531.111 to hCCR5 expressing cells” value on hCCR5 [4] (hydrochloride) is listed as “strongly inhibited; also recorded: strong”.
